Source: patent US7405081B2, “Methods and kits for identifying scavengers of reactive oxygen species (ROS)” (priority 2001, dated 2008)
Marks after values point to notes of the source that are not given here.

Legend:
[1] = system: katA-gfp fusion in AG6 cells; assay: Extracellular catalase added to IB plates, GFP expression of AG6 cells; format: cell-based, Agrobacterium tumefaciens; details: 1 or 5 microgram per ml in IB plates
Procedure: Catalase purchased from Sigma was added into IB plates at a final concentration of 1 or 5 microgram per ml. AG6 cells (carrying the katA-gfp fusion) were then grown on the IB plate. […] To ensure that the catalase in the IB medium was still active, hydrogen peroxide was dropped onto the catalase-containing plate. Air bubbles were instantly visible in the catalase-containing plate; no air bubble was found in the control catalase-free IB plate. […] Therefore, it can be concluded that extracellular catalase could not remove the intracellular hydrogen peroxide.

katA-gfp fusion = details: AG6 in MG/L, 30-120 μM H2O2, 2 hours
Procedure: To determine if H2O2 can induce the katA expression, AG6 was grown in MG/L liquid medium overnight at 28° C. The cells were harvested and resuspended in fresh MG/L liquid medium to a final concentration of OD600=0.5. Aliquots (2 ml) of the cultures were transferred into sterile tubes, and H2O2 was added to the tubes to final concentrations of 30 μM, 60 μM and 120 μM. The cell suspensions were incubated at 28° C. for 2 hours. Then 1 ml of each cell suspension was centrifuged, washed and resuspended in the Laemmli (1970) sample buffer, and subjected to Western blot as described later.
To determine whether the expression of katA can be induced by H2O2, like some of other bacterial catalases (Loewen, 1997), AG6 was treated with low concentrations of H2O2 (30-120 μM) in liquid MG/L medium and the katA-gfp expression levels were then determined.

[2] = Peroxidase activity staining of cell extracts; format: biochemical, Agrobacterium tumefaciens; details: same cell extracts
[3] = Catalase activity assay in whole bacterial cells (Amplex Red Catalase Assay Kit); format: cell-based, Agrobacterium tumefaciens; details: whole cells grown on IB plates
Procedure: Catalase activity assay: The catalase activity in whole bacterial cells was determined as previously described (Maciver and Hansen, 1996) except using the Amplex Red Catalase Assay Kit (Molecular Probes Inc., USA). Briefly, A. tumefaciens strains were grown at 28° C. for 24 hr on IB plates. The cells were harvested, washed and resuspended at OD600=1.0 in 50 mM phosphate-buffer (pH 7.4). For the strains with the wild type katA [A348, AG6 (pXQ9), and AG6 (pXQ23)], 100 μl cell suspension of each sample was incubated with 50 μl 40 μM H2O2 at time intervals of 0, 30 sec, 1 min and 2 min.
For the strains with the katA mutants [AG6, AG6 (pXQ11), AG6 (pXQ22), AG6 (pXQ26) and AG6 (pXQ27)], 100 μl cell suspension of each sample was incubated with 50 μl 5 μM H2O2 at time intervals of 0, 1, 2, and up to 6 min. The amount of H2O2 left after degradation by the bacterial catalase was then determined by adding 50 μl Amplex Red reagent N-acetyl-3, 7-dihydroxyphenoxazine at 25 μM and 0.4 U/ml horse radish peroxidase provided by the kit. The fluorometric assay was conducted by the same procedure as described above for the measurement of intracellular H2O2. The cell suspensions without the added H2O2 were used as the blank. Solutions of crystalline bovine catalase (Sigma) were used to standardize this assay.
The catalase activity in whole bacterial cells was determined as described above in Example 1 (“Catalase activity assay”).

aopB-gfp = aopB-gfp expression in strain CGI1 (specificity control); format: cell-based, Agrobacterium tumefaciens; details: pXQ9 introduced into CGI1, IB (pH 5.5)
Procedure: To study the katA gene expression in different genetic backgrounds, A. tumefaciens strains A348, AG6, AG6 (pSW172), AG6 (pXQ9), A613, CGI1 and CGI1 (pXQ9) were grown at 28° C. for 24 hours on IB (pH 5.5) agar plates. The fluorescence of each strain was determined as described above.
To determine if katA could specifically repress katA-gfp, pXQ9 was introduced into a different mini-Tn5 transposon mutant strain CGI1, which contained the transposon insertion at a chromosomal gene aopB and could produce bright green fluorescence under UV light.

With Catalase the “Repression of katA-gfp expression by catalase added to the medium” value [1] was “did not repress katA-gfp expression”.

With OO [H2O2, hydrogen peroxide] the “katA-gfp expression levels in presence of H2O2” value (katA-gfp fusion) was “increased significantly”.

With “KatA: Agrobacterium tumefaciens catalase encoded by katA; putative protein of 723 amino acids, 78.7 kDa” the “Peroxidase activity associated with the catalase activity bands” value [2] was “no peroxidase activity”, the Catalase activity ([3]; gene on plasmid in AG6, driven by katA and lac promoters (pXQ23, pXQ26, pXQ27)) was 77145.5 ± 440.3 unit/10^8 cells and the Catalase activity ([3]; gene on plasmid in AG6, driven by katA promoter (pXQ9, pXQ11, pXQ22)) was 3997.3 ± 459.1 unit/10^8 cells. The Catalase activity ([3]; strain AG6 (katA disrupted by mini-Tn5)) was 175.2 ± 20.2^c unit/10^8 cells, the Catalase activity ([3]; wild type strain A348) was 1486.2 ± 149.5 unit/10^8 cells and the “Repression of aopB-gfp expression” value (aopB-gfp) was “did not repress”.
